Measured values: patent US11993640B2, “Treating inflammatory lung disease” (United States Government as represented by the Department …, priority 2019, dated 2024)
Non-standard residues stand in square brackets, D forms with d. Residues, ends and D or L forms follow the SMILES beside them. *: point of attachment. Phenylacetyl(2,3,4,5,6-F5) = O=C(Cc1c(F)c(F)c(F)c(F)c1F)*; Phe(4-Cl) = N[C@@H](Cc1ccc(Cl)cc1)C(=O)O; hArg = N=C(N)NCCCC[C@H](N)C(=O)O; 12Ado = NCCCCCCCCCCCC(=O)O; Nle = CCCC[C@H](N)C(=O)O; Orn = NCCC[C@H](N)C(=O)O; Abu = CC[C@H](N)C(=O)O; PhAc = O=C(Cc1ccccc1)*; Aoc = NCCCCCCCC(=O)O

Experiments:
Type in all cases: cell-based, human
Details in all cases: 5 μM, 72 h; relative to MIA602 = 1; Table 3A
[1] = system: HCC827 cells; assay: In vitro cell viability, lung cancer HCC827
Experimental: (§1) The inhibitory effects of the various synthesized GHRH antagonists were tested in cell proliferation assays in various human cancer cell lines including stomach cancer (KATOIII, N87), colon cancer (HT-29), urothelial cancer (J82, RT4), pancreatic cancer (PANC-1, CFPAC-1), prostatic cancer (PC3), breast cancer (MX-1, HCC1806), ovarian cancer (SK-OV-3, OVCAR-3) and lung cancer (HCC827, H460).
(§2) Cell culture. Human cancer cell lines including pancreatic (PANC-1 and CFPAC-1), lung (HCC827 and H460), stomach (NCI-N87 and KATOIII), urothelial (J82, RT4), prostatic (PC3), breast (MX-1 and HCC 1806), colorectal (HT-29), and ovarian (SK-OV-3 and OVCAR-3) were obtained from the American Type Culture Collection (ATCC) and cultured at 37° C. in a humidified 95% air/5% CO2 atmosphere in the medium recommended by ATCC.
(§3) In vitro cell viability. Cell viability was analyzed as follows: cancer cells including pancreatic (PANC-1 and CFPAC-1), lung (HCC827 and H460), stomach (NCI-N87 and KATOIII), urothelial (J82, RT4), prostatic (PC3) and breast (MX-1 and HCC 1806), colorectal (HT-29) and ovarian (SK-OV-3 and OVCAR-3) were grown on 96 well plates to ˜60% confluence, the cells were starved for 24 h in culture medium containing 0.5% FBS. Cells were then treated with GHRH antagonists MIA602 AVR compounds at concentrations of 1, 2.5 or 5 μM, or vehicle (0.1% DMSO) in quintuplicates for 72 hours. The medium was replaced every 48 hours. Cell viability was measured using CellTiter 96 aqueous one solution kit (Promega). Inhibitory effects of tested AVR compounds in comparison to that of MIA602 are presented as inhibitory potency.
(§4) Inhibitory effects of selected AVR compounds in comparison to that of MIA602 are presented as inhibitory potency (e.g., percentage of inhibition). […] The cell lines tested including lung cancer HCC827 (FIG. 2A), pancreatic cancer CFPAC-1 (FIG. 2B), stomach cancer N87 (FIG. 2C), colon cancer HT-29 (FIG. 2D), breast cancers MX-1 and HCC1806 (FIGS. 2E, F). Based on the results of cell proliferation assay after cancer cells were treated with antagonist at concentration of 5 μM for 72H, the relative inhibitory potency of AVR antagonists in comparison to MIA-602 is summarized in Table 3 A and B. Over 60 AVR compounds were tested in 12 cancer cell lines.
(§5) Based on the results of cell proliferation assay after cancer cells were treated with antagonist at concentration of 5 µM for 72H, * at concentration of 2 µM for 72 H.

[2] = system: KATOIII cells; assay: In vitro cell viability, stomach cancer KATOIII
Experimental: as §1, §2, §3, §4

[3] = system: CFPAC-1 cells; assay: In vitro cell viability, pancreatic cancer CFPAC-1
Experimental: as §1, §2, §3, §4, §5

SMILES | Relative inhibitory potency, Lung HCC827 [1] | Relative inhibitory potency, Stomach KATOIII [2] | Relative inhibitory potency, Pancreatic CFPAC-1 [3]
CCCC[C@H](NC(=O)[C@@H](NC(=O)[C@H](CC(=O)O)NC(=O)[C@H](CCC(N)=O)NC(=O)[C@H](CC(C)C)NC(=O)[C@H](CC(C)C)NC(=O)[C@H](CCCCN)NC(=O)[C@H](CCCNC(=N)N)NC(=O)[C@H](C)NC(=O)[C@H](CO)NC(=O)[C@H](CC(C)C)NC(=O)[C@H](CCC(N)=O)NC(=O)[C@H](CC)NC(=O)[C@H](CC(C)C)NC(=O)[C@@H](NC(=O)[C@H](CCCCN)NC(=O)[C@H](CCCNC(=N)N)NC(=O)[C@H](Cc1ccc(OC)cc1)NC(=O)[C@H](CCCNC(=N)N)NC(=O)[C@H](CC(N)=O)NC(=O)[C@@H](NC(=O)[C@H](Cc1ccc(Cl)cc1)NC(=O)[C@@H](NC(=O)[C@H](C)NC(=O)[C@H](CC(=O)O)NC(=O)[C@@H](CCCNC(=N)N)NC(=O)[C@H](Cc1ccc(O)cc1)NC(=O)CCCCCCCCCCCNC(=O)Cc1ccccc1)[C@@H](C)CC)[C@@H](C)O)C(C)C)[C@@H](C)CC)C(=O)N[C@H](CCCNC(=N)N)C(=O)N[C@@H](CCCCNC(=N)N)C(=O)NC [AVR-234, PhAC-Ada-Tyr-DArg-Asp-Ala-Ile-Cpa-Thr-Asn-Arg-Tyr(Me)-Arg-Lys-Val-Leu-Abu-Gln-Leu-Ser-Ala-Arg-Lys-Leu-Leu-Gln-Asp-Ile-Nle-DArg-Har-NHCH3] ({PhAc-12Ado}-Y[dR]DAI[Phe(4-Cl)]TNRY(Me)RKVL[Abu]QLSARKLLQDI[Nle][dR][hArg]-NHMe) | 4.510 | 1.709 | 2.205
CCCC[C@H](NC(=O)[C@@H](NC(=O)[C@H](CC(=O)O)NC(=O)[C@H](CCC(N)=O)NC(=O)[C@H](CC(C)C)NC(=O)[C@H](CC(C)C)NC(=O)[C@H](CCCCN)NC(=O)[C@H](CCCNC(=N)N)NC(=O)[C@H](C)NC(=O)[C@H](CO)NC(=O)[C@H](CC(C)C)NC(=O)[C@H](CCC(N)=O)NC(=O)[C@H](CC)NC(=O)[C@H](CC(C)C)NC(=O)[C@@H](NC(=O)[C@H](CCCCN)NC(=O)[C@H](CCCNC(=N)N)NC(=O)[C@H](Cc1ccc(OC)cc1)NC(=O)[C@H](CCCCNC(=N)N)NC(=O)[C@H](CC(N)=O)NC(=O)[C@@H](NC(=O)[C@H](Cc1ccc(Cl)cc1)NC(=O)[C@@H](NC(=O)[C@H](C)NC(=O)[C@H](CC(=O)O)NC(=O)[C@@H](CCCNC(=N)N)NC(=O)[C@H](Cc1ccc(O)cc1)NC(=O)CCCCCCCCCCCNC(=O)Cc1ccccc1)[C@@H](C)CC)[C@@H](C)O)C(C)C)[C@@H](C)CC)C(=O)N[C@H](CCCNC(=N)N)C(=O)N[C@@H](CCCCNC(=N)N)C(=O)NCCCCCCCC(=O)NC [AVR-321, PhAC-Ada-Tyr-DArg-Asp-Ala-Ile-Cpa-Thr-Asn-Har-Tyr(Me)-Arg-Lys-Val-Leu-Abu-Gln-Leu-Ser-Ala-Arg-Lys-Leu-Leu-Gln-Asp-Ile-Nle-DArg-Har-Aoc-NHCH3] ({PhAc-12Ado}-Y[dR]DAI[Phe(4-Cl)]TN[hArg]Y(Me)RKVL[Abu]QLSARKLLQDI[Nle][dR][hArg][Aoc]-NHMe) | – | 1.414 | –
CCCC[C@H](NC(=O)[C@@H](NC(=O)[C@H](CC(=O)O)NC(=O)[C@H](CCC(N)=O)NC(=O)[C@H](CC(C)C)NC(=O)[C@H](CC(C)C)NC(=O)[C@H](CCCCN)NC(=O)[C@H](CCCNC(=N)N)NC(=O)[C@H](C)NC(=O)[C@H](CO)NC(=O)[C@H](CC(C)C)NC(=O)[C@H](CCC(N)=O)NC(=O)[C@H](CC)NC(=O)[C@H](CC(C)C)NC(=O)[C@@H](NC(=O)[C@H](CCCCN)NC(=O)[C@H](CCCNC(=N)N)NC(=O)[C@H](Cc1ccc(OC)cc1)NC(=O)[C@H](CCCCNC(=N)N)NC(=O)[C@H](CC(N)=O)NC(=O)[C@@H](NC(=O)[C@H](Cc1ccc(Cl)cc1)NC(=O)[C@@H](NC(=O)[C@H](C)NC(=O)[C@H](CC(=O)O)NC(=O)[C@@H](CCCNC(=N)N)NC(=O)[C@H](Cc1ccc(O)cc1)NC(=O)CCCCCCCCCCCNC(=O)Cc1c(F)c(F)c(F)c(F)c1F)[C@@H](C)CC)[C@@H](C)O)C(C)C)[C@@H](C)CC)C(=O)N[C@H](CCCNC(=N)N)C(=O)N[C@@H](CCCCNC(=N)N)C(=O)NCCCCCCCC(=O)NC [AVR-322, 5FPhAC-Ada-Tyr-DArg-Asp-Ala-Ile-Cpa-Thr-Asn-Har-Tyr(Me)-Arg-Lys-Val-Leu-Abu-Gln-Leu-Ser-Ala-Arg-Lys-Leu-Leu-Gln-Asp-Ile-Nle-DArg-Har-Aoc-NHCH3] ({Phenylacetyl(2,3,4,5,6-F5)-12Ado}-Y[dR]DAI[Phe(4-Cl)]TN[hArg]Y(Me)RKVL[Abu]QLSARKLLQDI[Nle][dR][hArg][Aoc]-NHMe) | – | 1.296 | –
CCCC[C@H](NC(=O)[C@@H](NC(=O)[C@H](CC(=O)O)NC(=O)[C@H](CCC(N)=O)NC(=O)[C@H](CC(C)C)NC(=O)[C@H](CC(C)C)NC(=O)[C@H](CCCCN)NC(=O)[C@H](CCCNC(=N)N)NC(=O)[C@H](C)NC(=O)[C@H](CO)NC(=O)[C@H](CC(C)C)NC(=O)[C@H](CCC(N)=O)NC(=O)[C@H](CC)NC(=O)[C@H](CC(C)C)NC(=O)[C@@H](NC(=O)[C@H](CCCCN)NC(=O)[C@H](CCCNC(=N)N)NC(=O)[C@H](Cc1ccc(OC)cc1)NC(=O)[C@H](CCCCNC(=N)N)NC(=O)[C@H](CC(N)=O)NC(=O)[C@@H](NC(=O)[C@H](Cc1ccc(Cl)cc1)NC(=O)[C@@H](NC(=O)[C@H](C)NC(=O)[C@H](CC(=O)O)NC(=O)[C@@H](CCCNC(=N)N)NC(=O)[C@H](Cc1ccc(O)cc1)NC(=O)CCCCCCCCCCCNC(=O)Cc1ccccc1)[C@@H](C)CC)[C@@H](C)O)C(C)C)[C@@H](C)CC)C(=O)N[C@H](CCCNC(=N)N)C(=O)N[C@@H](CCCCNC(=N)N)C(=O)NCCCCCCCCCCCC(N)=O [AVR-332] ({PhAc-12Ado}-Y[dR]DAI[Phe(4-Cl)]TN[hArg]Y(Me)RKVL[Abu]QLSARKLLQDI[Nle][dR][hArg][12Ado]-NH2) | – | 1.643 | –
CCCC[C@H](NC(=O)[C@@H](NC(=O)[C@H](CC(=O)O)NC(=O)[C@H](CCC(N)=O)NC(=O)[C@H](CC(C)C)NC(=O)[C@H](CC(C)C)NC(=O)[C@H](CCCN)NC(=O)[C@H](Cc1c[nH]cn1)NC(=O)[C@H](C)NC(=O)[C@H](CO)NC(=O)[C@H](CC(C)C)NC(=O)[C@H](CCC(N)=O)NC(=O)[C@H](CC)NC(=O)[C@H](CC(C)C)NC(=O)[C@@H](NC(=O)[C@H](CCCCN)NC(=O)[C@H](CCCNC(=N)N)NC(=O)[C@H](Cc1ccc(OC)cc1)NC(=O)[C@H](CCCNC(=N)N)NC(=O)[C@H](CC(N)=O)NC(=O)[C@@H](NC(=O)[C@H](Cc1ccc(Cl)cc1)NC(=O)[C@@H](NC(=O)[C@H](C)NC(=O)[C@H](CC(=O)O)NC(=O)[C@@H](CCCNC(=N)N)NC(=O)[C@H](Cc1ccc(O)cc1)NC(=O)CCCCCCCCCCCNC(=O)Cc1c(F)c(F)c(F)c(F)c1F)[C@@H](C)CC)[C@@H](C)O)C(C)C)[C@@H](C)CC)C(=O)N[C@H](CCCNC(=N)N)C(=O)N[C@@H](CCCCNC(=N)N)C(=O)NCCCCCCCCCCCC(N)=O [AVR-620, 5FPhAC-Ada-Tyr-DArg-Asp-Ala-Ile-Cpa-Thr-Asn-Arg-Tyr(Me)-Arg-Lys-Val-Leu-Abu-Gln-Leu-Ser-Ala-His-Orn-Leu-Leu-Gln-Asp-Ile-Nle-DArg-Har-Ada-NH2] ({Phenylacetyl(2,3,4,5,6-F5)-12Ado}-Y[dR]DAI[Phe(4-Cl)]TNRY(Me)RKVL[Abu]QLSAH[Orn]LLQDI[Nle][dR][hArg][12Ado]-NH2) | 3.753 | 1.769 | 1.567
